Measured values from ChEMBL document CHEMBL3137667, “[Drug-induced liver injury; fourteenth updated edition of the bibliographic database of liver injuries and related drugs]” (Gastroenterol Clin Biol, 2004).

What was measured:
[1] = Comments (NB not yet translated). [column 'COMMENTAIRES' in source]; conditions: human
[2] = Times to onset, minimal and maximal, observed in the indexed observations. [column 'DELAI' in source]; conditions: human
[3] = Proposed mechanism(s) of liver damage. [column 'MEC' in source]; conditions: human
[4] = human
[5] = human; remark: listed apart in the source
[6] = human, serum, 4383 h
[7] = human; remark: listed apart in the source
[8] = human; remark: listed apart in the source
[9] = human; remark: listed apart in the source
[10] = human; remark: listed apart in the source
[11] = human; remark: listed apart in the source
[12] = human; remark: listed apart in the source
[13] = human; remark: listed apart in the source
[14] = Highest frequency of moderate liver toxicity observed during clinical trials, expressed as a percentage. [column '% BIOL' in source]; conditions: human
[15] = Highest frequency of acute liver toxicity observed during clinical trials, expressed as a percentage. [column '% AIGUE' in source]; conditions: human
[16] = human, serum
[17] = human, serum; remark: listed apart in the source
[18] = human; remark: listed apart in the source
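For Hepatotoxicity (association with vascular disease) in this document: count of indexed literature references reporting vascular liver injury in humans, e.g. peliosis hepatitis, hepatic veno-occlusive disease or Budd-Chiari syndrome.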
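For Hepatotoxicity (benign tumour) in this document: value is a count of indexed literature references citing a benign tumour confirmed by histopathology.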
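For Hepatotoxicity (choleostasis) in this document: human cholestatic liver injury, shown by histopathology or by peak ALT or AST elevation over alkaline phosphatase ratio below 2, value counts indexed literature reports.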
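For Hepatotoxicity (chronic liver disease) in this document: chronic liver injury confirmed by histopathology or persistently raised serum aminotransferase activity beyond 6 months, value given as the count of indexed literature references.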
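For Hepatotoxicity (cirrhosis) in this document: value is a count of indexed literature references reporting cirrhosis confirmed by histopathology.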
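For Hepatotoxicity (cytolytic) in this document: human cytolytic liver injury, shown by histopathology or by a ratio above 5 of peak ALT or AST elevation to alkaline phosphatase elevation, value counts indexed references.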
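For Hepatotoxicity (granulomatous hepatitis) in this document: value is a count of indexed literature references reporting granulomatous liver disease confirmed by histopathology.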
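For Hepatotoxicity (malignant tumour) in this document: malignant tumour confirmed by histopathology, value gives the count of indexed literature references reporting it.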
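For Hepatotoxicity (severe hepatitis) in this document: human clinical data: severe hepatitis, meaning potentially life-threatening liver failure or clinically observed cases, the value counts how many indexed literature references report it.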
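For Hepatotoxicity (steatosis) in this document: steatosis confirmed by histopathology, value is the count of indexed references.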

For `Clc1ccccc1CN1CCc2sccc2C1` [TICLOPIDINE], which “Hepatotoxicity (comment)” value [1] is on record?
The value was “CHOLANGITE CHOLESTASE_PROLONGEE AC_ANTI-N”.

What about the “Hepatotoxicity (time to onset)” value [2] of the same compound?
The value was 1 week - 3 years.

What about the “Hepatotoxicity (mechanism)” value ([3]; Liver) of the same compound?
Its value is “Allergic”.

And the “Hepatotoxicity (cytolytic)” value ([4]; Liver)?
Its value is 15.

And the “Hepatotoxicity (choleostasis)” value ([5]; Liver)?
The value was 56.

What about the “Hepatotoxicity (chronic liver disease)” value [6] of the same compound?
Its value is 1.

What about the “Hepatotoxicity (cirrhosis)” value [7] of the same compound?
Its value is 0.

What about the “Hepatotoxicity (granulomatous hepatitis)” value ([8]; Liver) of the same compound?
Its value is 2.

And the “Hepatotoxicity (association with vascular disease)” value [9]?
The value was 0.

What about the “Hepatotoxicity (steatosis)” value [10] of the same compound?
Its value is 1.

What about the “Hepatotoxicity (malignant tumour)” value [11] of the same compound?
Its value is 0.

And the “Hepatotoxicity (benign tumour)” value [12]?
The value was 0.

And the “Hepatotoxicity (animal toxicity known)” value [13]?
The value was “yes”.

With `O=C(O)c1cn(C2CC2)c2cc(N3CCNCC3)c(F)cc2c1=O` [CIPROFLOXACIN] as the compound, how does the “Hepatotoxicity (moderate)” value ([14]; Liver) read?
Its value is 46.4%.

And the “Hepatotoxicity (acute)” value ([15]; Liver)?
The value was 0.2%.

What about the “Hepatotoxicity (comment)” value [1] of the same compound?
The value was “DUCTOPENIE AC_ANTI-N/-ADN”.

What about the “Hepatotoxicity (time to onset)” value [2] of the same compound?
The value was 2 days - 6 months.

What about the “Hepatotoxicity (mechanism)” value [3] of the same compound?
The value was “Allergic, Dose-dependant”.

What about the “Hepatotoxicity (moderate)” value [16] of the same compound?
Its value is 114.

What about the “Hepatotoxicity (acute)” value [17] of the same compound?
The value was 21.

And the “Hepatotoxicity (cytolytic)” value [4]?
Its value is 7.

What about the “Hepatotoxicity (choleostasis)” value [5] of the same compound?
Its value is 12.

And the “Hepatotoxicity (severe hepatitis)” value ([18]; Liver)?
The value was 5.

And the “Hepatotoxicity (chronic liver disease)” value [6]?
The value was 1.

And the “Hepatotoxicity (cirrhosis)” value [7]?
Its value is 0.

What about the “Hepatotoxicity (granulomatous hepatitis)” value [8] of the same compound?
Its value is 0.

What about the “Hepatotoxicity (association with vascular disease)” value [9] of the same compound?
The value was 0.

What about the “Hepatotoxicity (steatosis)” value [10] of the same compound?
The value was 1.

And the “Hepatotoxicity (malignant tumour)” value [11]?
The value was 0.

And the “Hepatotoxicity (benign tumour)” value [12]?
Its value is 0.

What about the “Hepatotoxicity (animal toxicity known)” value [13] of the same compound?
Its value is “yes”.

Which results are given for `FC(F)OC(F)C(F)(F)F` (configuration not stated)?
Hepatotoxicity (moderate) [14]: 11.1%; Hepatotoxicity (acute) [15]: 0%; Hepatotoxicity (comment) [1]: AC_ANTI-TFA; Hepatotoxicity (time to onset) [2]: 1 day - 12 days; Hepatotoxicity (mechanism) [3]: Reactive metabolite, Allergic; Hepatotoxicity (moderate) [16]: 2; Hepatotoxicity (acute) [17]: 4; Hepatotoxicity (cytolytic) [4]: 4; Hepatotoxicity (choleostasis) [5]: 0; Hepatotoxicity (severe hepatitis) [18]: 3; Hepatotoxicity (chronic liver disease) [6]: 0; Hepatotoxicity (cirrhosis) [7]: 0; Hepatotoxicity (granulomatous hepatitis) [8]: 0; Hepatotoxicity (association with vascular disease) [9]: 0; Hepatotoxicity (steatosis) [10]: 0; Hepatotoxicity (malignant tumour) [11]: 0; Hepatotoxicity (benign tumour) [12]: 0; Hepatotoxicity (animal toxicity known) [13]: yes

For `CN(C/C=C/C#CC(C)(C)C)Cc1cccc2ccccc12` [TERBINAFINE], which “Hepatotoxicity (moderate)” value [14] is on record?
The value was 36.7%.

What about the “Hepatotoxicity (acute)” value [15] of the same compound?
The value was 0%.

And the “Hepatotoxicity (comment)” value [1]?
The value was “CHOLANGITE DUCTOPENIE CHOLESTASE_PROLONGEE”.

What about the “Hepatotoxicity (time to onset)” value [2] of the same compound?
Its value is 1 week - 6 months.

And the “Hepatotoxicity (mechanism)” value [3]?
The value was “Reactive metabolite”.

What about the “Hepatotoxicity (moderate)” value [16] of the same compound?
The value was 21.

And the “Hepatotoxicity (acute)” value [17]?
The value was 23.

And the “Hepatotoxicity (cytolytic)” value [4]?
The value was 7.

What about the “Hepatotoxicity (choleostasis)” value [5] of the same compound?
The value was 15.

What about the “Hepatotoxicity (severe hepatitis)” value [18] of the same compound?
The value was 3.

And the “Hepatotoxicity (chronic liver disease)” value [6]?
The value was 1.

What about the “Hepatotoxicity (cirrhosis)” value [7] of the same compound?
The value was 0.

And the “Hepatotoxicity (granulomatous hepatitis)” value [8]?
Its value is 0.

And the “Hepatotoxicity (association with vascular disease)” value [9]?
Its value is 1.

What about the “Hepatotoxicity (steatosis)” value [10] of the same compound?
The value was 0.

And the “Hepatotoxicity (malignant tumour)” value [11]?
The value was 0.

What about the “Hepatotoxicity (benign tumour)” value [12] of the same compound?
Its value is 0.

What about the “Hepatotoxicity (animal toxicity known)” value [13] of the same compound?
The value was “yes”.

Which results are given for `CC[C@]1(O)C[C@@H]2CN(CCc3c([nH]c4ccccc34)[C@@](C(=O)OC)(c3cc4c(cc3OC)N(C)[C@H]3[C@@](O)(C(=O)OC)[C@H](OC(C)=O)[C@]5(CC)C=CCN6CC[C@]43[C@@H]65)C2)C1` [VINBLASTINE]?
Hepatotoxicity (moderate) [14]: 22.6%; Hepatotoxicity (acute) [15]: 0%; Hepatotoxicity (comment) [1]: I/DOXORUBICINE; Hepatotoxicity (time to onset) [2]: 2 cures; Hepatotoxicity (moderate) [16]: 5; Hepatotoxicity (acute) [17]: 1; Hepatotoxicity (cytolytic) [4]: 0; Hepatotoxicity (choleostasis) [5]: 1; Hepatotoxicity (severe hepatitis) [18]: 0; Hepatotoxicity (chronic liver disease) [6]: 0; Hepatotoxicity (cirrhosis) [7]: 0; Hepatotoxicity (granulomatous hepatitis) [8]: 0; Hepatotoxicity (association with vascular disease) [9]: 1; Hepatotoxicity (steatosis) [10]: 0; Hepatotoxicity (malignant tumour) [11]: 0; Hepatotoxicity (benign tumour) [12]: 0; Hepatotoxicity (animal toxicity known) [13]: yes

With `COc1cccc2c1C(=O)c1c(O)c3c(c(O)c1C2=O)C[C@@](O)(C(C)=O)C[C@@H]3O[C@H]1C[C@H](N)[C@H](O)[C@H](C)O1` [DAUNORUBICIN] as the compound, how does the “Hepatotoxicity (moderate)” value [14] read?
Its value is 68%.

What about the “Hepatotoxicity (acute)” value [15] of the same compound?
The value was 0%.

And the “Hepatotoxicity (comment)” value [1]?
Its value is “I/THIOGUANINE”.

And the “Hepatotoxicity (time to onset)” value [2]?
Its value is 3 cures.

And the “Hepatotoxicity (moderate)” value [16]?
Its value is 3.

What about the “Hepatotoxicity (acute)” value [17] of the same compound?
Its value is 2.

What about the “Hepatotoxicity (cytolytic)” value [4] of the same compound?
Its value is 2.

And the “Hepatotoxicity (choleostasis)” value [5]?
The value was 0.

And the “Hepatotoxicity (severe hepatitis)” value [18]?
The value was 0.

What about the “Hepatotoxicity (chronic liver disease)” value [6] of the same compound?
The value was 0.

What about the “Hepatotoxicity (cirrhosis)” value [7] of the same compound?
Its value is 0.

What about the “Hepatotoxicity (granulomatous hepatitis)” value [8] of the same compound?
Its value is 0.

What about the “Hepatotoxicity (association with vascular disease)” value [9] of the same compound?
Its value is 2.

And the “Hepatotoxicity (steatosis)” value [10]?
Its value is 0.

And the “Hepatotoxicity (malignant tumour)” value [11]?
The value was 0.

And the “Hepatotoxicity (benign tumour)” value [12]?
Its value is 0.

And the “Hepatotoxicity (animal toxicity known)” value [13]?
The value was “yes”.

What does the source list for `CNCCCN1c2ccccc2CCc2ccccc21` [DESIPRAMINE]?
Hepatotoxicity (moderate) ([14]; Liver): 8.7%; Hepatotoxicity (acute) ([15]; Liver): 0%; Hepatotoxicity (comment) [1]: RC/IMIPRAMINE/TRIMIPRAMINE/CYAMEMAZINE; Hepatotoxicity (time to onset) [2]: 1 week - 1 month; Hepatotoxicity (mechanism) ([3]; Liver): Allergic; Hepatotoxicity (moderate) [16]: 4; Hepatotoxicity (cytolytic) ([4]; Liver): 5; Hepatotoxicity (choleostasis) ([5]; Liver): 1; Hepatotoxicity (severe hepatitis) ([18]; Liver): 1; Hepatotoxicity (chronic liver disease) [6]: 0; Hepatotoxicity (cirrhosis) [7]: 0; Hepatotoxicity (granulomatous hepatitis) ([8]; Liver): 0; Hepatotoxicity (association with vascular disease) [9]: 0; Hepatotoxicity (steatosis) [10]: 0; Hepatotoxicity (malignant tumour) [11]: 0; Hepatotoxicity (benign tumour) [12]: 0; Hepatotoxicity (animal toxicity known) [13]: yes

Which “Hepatotoxicity (moderate)” value [14] does the source give for `CCOC(=O)C(C)(C)Oc1ccc(Cl)cc1` [CLOFIBRATE] here?
Its value is 19.7%.

What about the “Hepatotoxicity (acute)” value [15] of the same compound?
Its value is 0%.

And the “Hepatotoxicity (comment)” value [1]?
Its value is “RC/FENOFIBRATE”.

And the “Hepatotoxicity (time to onset)” value [2]?
Its value is 2 months - 7 years.

What about the “Hepatotoxicity (moderate)” value [16] of the same compound?
The value was 4.

And the “Hepatotoxicity (acute)” value [17]?
Its value is 3.

And the “Hepatotoxicity (cytolytic)” value [4]?
Its value is 2.

And the “Hepatotoxicity (choleostasis)” value [5]?
Its value is 1.

What about the “Hepatotoxicity (severe hepatitis)” value [18] of the same compound?
The value was 0.

And the “Hepatotoxicity (chronic liver disease)” value [6]?
The value was 0.

And the “Hepatotoxicity (cirrhosis)” value [7]?
The value was 0.

What about the “Hepatotoxicity (granulomatous hepatitis)” value [8] of the same compound?
The value was 1.

What about the “Hepatotoxicity (association with vascular disease)” value [9] of the same compound?
Its value is 0.

What about the “Hepatotoxicity (steatosis)” value [10] of the same compound?
Its value is 1.

What about the “Hepatotoxicity (malignant tumour)” value [11] of the same compound?
Its value is 0.

And the “Hepatotoxicity (benign tumour)” value [12]?
The value was 1.

And the “Hepatotoxicity (animal toxicity known)” value [13]?
The value was “yes”.

With `CN(C)[C@@H]1C(O)=C(C(N)=O)C(=O)[C@@]2(O)C(O)=C3C(=O)c4c(O)cccc4[C@@](C)(O)[C@H]3C[C@@H]12` [TETRACYCLINE] as the compound, how does the “Hepatotoxicity (moderate)” value [14] read?
The value was 6.3%.

And the “Hepatotoxicity (acute)” value [15]?
Its value is 0%.

What about the “Hepatotoxicity (comment)” value [1] of the same compound?
The value was “CHOLESTASE_PROLONGEE DUCTOPENIE”.

What about the “Hepatotoxicity (time to onset)” value [2] of the same compound?
Its value is 3 days - 2 months.

And the “Hepatotoxicity (moderate)” value [16]?
The value was 1.

And the “Hepatotoxicity (acute)” value [17]?
The value was 10.

And the “Hepatotoxicity (cytolytic)” value [4]?
The value was 2.

And the “Hepatotoxicity (choleostasis)” value [5]?
Its value is 8.

What about the “Hepatotoxicity (severe hepatitis)” value [18] of the same compound?
The value was 7.

What about the “Hepatotoxicity (chronic liver disease)” value [6] of the same compound?
Its value is 1.

What about the “Hepatotoxicity (cirrhosis)” value [7] of the same compound?
Its value is 0.

What about the “Hepatotoxicity (granulomatous hepatitis)” value [8] of the same compound?
Its value is 0.

And the “Hepatotoxicity (association with vascular disease)” value [9]?
The value was 0.

And the “Hepatotoxicity (steatosis)” value [10]?
The value was 22.

And the “Hepatotoxicity (malignant tumour)” value [11]?
The value was 0.

And the “Hepatotoxicity (benign tumour)” value [12]?
Its value is 0.

What about the “Hepatotoxicity (animal toxicity known)” value [13] of the same compound?
The value was “yes”.
